Values quoted from earlier work, collected in US20220098283A1, “ACE2- and TMPRSS2-Targeted Compositions and Methods for Treating COVID-19” (priority 2020, published 2022).
Read-outs that look alike come from different tables or passages of the source.

Target: hACE2 (Homo sapiens, UniProt Q9BYF1)
Details: 100 μM angiotensin II, 37° C., 2 hours

Sequence of hACE2 (Q9BYF1 18-805): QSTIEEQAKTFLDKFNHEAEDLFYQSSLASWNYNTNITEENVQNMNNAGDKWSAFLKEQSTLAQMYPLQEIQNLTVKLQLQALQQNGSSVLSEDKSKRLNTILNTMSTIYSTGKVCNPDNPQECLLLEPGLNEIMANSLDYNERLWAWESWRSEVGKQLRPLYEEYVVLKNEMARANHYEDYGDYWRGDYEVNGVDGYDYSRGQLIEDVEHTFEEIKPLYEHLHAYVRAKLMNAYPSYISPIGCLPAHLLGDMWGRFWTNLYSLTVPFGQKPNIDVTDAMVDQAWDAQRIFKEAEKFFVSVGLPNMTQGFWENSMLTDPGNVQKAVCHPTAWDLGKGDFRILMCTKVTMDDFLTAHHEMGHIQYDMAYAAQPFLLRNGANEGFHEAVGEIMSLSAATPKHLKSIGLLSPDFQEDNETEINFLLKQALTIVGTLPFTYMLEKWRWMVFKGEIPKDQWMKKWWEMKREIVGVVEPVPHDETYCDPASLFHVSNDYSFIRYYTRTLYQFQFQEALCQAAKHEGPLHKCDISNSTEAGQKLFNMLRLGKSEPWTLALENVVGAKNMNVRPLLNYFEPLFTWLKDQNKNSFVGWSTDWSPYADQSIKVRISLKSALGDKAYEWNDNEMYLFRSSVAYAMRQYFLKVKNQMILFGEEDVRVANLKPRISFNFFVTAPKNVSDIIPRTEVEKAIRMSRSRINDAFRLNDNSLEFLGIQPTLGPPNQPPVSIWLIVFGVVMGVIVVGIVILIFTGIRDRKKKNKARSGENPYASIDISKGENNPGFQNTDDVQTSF

| Compound | inhibition of hACE2 activity (angiotensin II cleavage) (inhibitor 10 mM) | inhibition of hACE2 activity (angiotensin II cleavage) (inhibitor 100 μM) |
| --- | --- | --- |
| O=C(O)CN(CCN(CC(=O)O)CC(=O)O)CC(=O)O [EDTA] | inhibits hACE2 activity |  |
| O=C(O)CC(Cc1ccccc1)C(=O)O (centres unmarked) [benzyl succinate] |  | none of lisinopril, captopril, enalaprilat, and benzyl succinate (a carboxypeptidase A inhibitor) inhibits hACE2 activity |
